Test [1] in a line: Inhibition of Pseudomonas aeruginosa arylamine N-acetyltransferase.
For test [2], the system named is Mycobacterium tuberculosis. In words: Antimycobacterial activity against Mycobacterium tuberculosis after 28 days. The test is classed as functional. The conditions noted are these: 672 h.
Test [3] in a line: Inhibition of Mycobacterium marinum recombinant arylamine N-acetyltransferase-mediated acetyl coA hydrolysis at 30 uM by DTNB-based spectrophotometric analysis.
Test [4] is described as follows: Competitive inhibition of Mycobacterium marinum recombinant arylamine N-acetyltransferase-mediated acetyl coA hydrolysis by DTNB-based spectrophotometric analysis.
The nature of test [5]: Inhibition of Mycobacterium marinum recombinant arylamine N-acetyltransferase-mediated acetyl coA hydrolysis by DTNB-based spectrophotometric analysis.

pIC50, pKi: −log10 of the molar value. ≈ marks a conversion by molar mass, not a printed value.

The term pIC50 denotes the IC50 on a negative log10 scale, so that one unit is a factor of ten. As a reminder, the MIC is the least concentration at which growth counts as inhibited. Read a low MIC as a more susceptible organism. Usually inhibition stands for how much of the control response was suppressed. Usually pKi stands for −log10 of the Ki, conventionally taken in molar units.

For `COc1ccc(-c2cc(-c3cc(OC)ccc3O)[nH]n2)cc1`, the negative-log IC50 (pIC50) is 5.01 in test [1] and 4.73 in test [5]. 34 µM (≈ 10.1 µg/mL) was the least that counted as inhibitory in test [2] (MIC). In addition, the inhibition in test [3] is 65.8%. The negative logarithm of the Ki (pKi) in test [4] was 4.63.
Take `COc1ccc(-c2cc(-c3cc(O)ccc3O)n[nH]2)cc1`: the inhibition in test [3] amounted to 21.5%. The negative logarithm of the IC50 (pIC50) in test [5] was less than 4.52.
For `COc1ccc(O)c(-c2cc(-c3ccc(F)cc3)[nH]n2)c1` the same measures were 59.2% and 4.67.
For `c1ccc(-c2cc(-c3ccccc3)[nH]n2)cc1` the same measures were 45.2% and less than 4.52.
For `COc1cccc(-c2cc(-c3ccc(F)cc3)[nH]n2)c1` the same measures were 61.2% and 4.75.
In the case of `COc1ccc(-c2cc(-c3ccccc3)n[nH]2)cc1`, the inhibition in test [3] was 26.5%. Besides, in test [5], the pIC50 was less than 4.52.
On the same counts, the results for `Oc1ccc(F)cc1-c1cc(-c2ccc(F)cc2)[nH]n1` are 32.7% and less than 4.52.
For `Fc1ccc(-c2cc(-c3cc(F)ccc3F)n[nH]2)cc1` the same measures were 29.7% and less than 4.52.
On the same counts, the results for `Fc1ccc(F)c(-c2cc(-c3ccccc3)[nH]n2)c1` are 53.5% and 4.73.
Regarding `COc1ccc(-c2cc(-c3cc(F)ccc3F)n[nH]2)cc1`, in test [3], the inhibition is 18.9%. Besides, the negative logarithm of the IC50 (pIC50) in test [5] was less than 4.52.
For `COc1ccc(-c2cc(-c3cc(O)cc(O)c3)n[nH]2)cc1` the same measures were 15.6% and less than 4.52.
For `COc1ccc(-c2cc(-c3cccc(OC)c3)n[nH]2)cc1` the same measures were 26.5% and less than 4.52.
On the same counts, the results for `COc1ccc(O)c(-c2cc(-c3ccccc3)[nH]n2)c1` are 53.9% and 4.89.
On to `COc1ccc(-c2cc(-c3cc(F)ccc3O)n[nH]2)cc1`, for which the inhibition in test [3] was found to be 46.5%. Besides, the pIC50 in test [5] was less than 4.52.
For `COc1ccc(-c2cc(-c3cc(OC)ccc3OC)n[nH]2)cc1` the same measures were 29.2% and less than 4.52.
In the case of `COc1ccc(OC)c(-c2cc(-c3ccccc3)[nH]n2)c1`, the inhibition in test [3] was determined as 50.7%. Also, the negative-log IC50 (pIC50) in test [5] was 4.93.

For the origin of these results see ChEMBL document CHEMBL2375319, “Design, synthesis and structure-activity relationships of 3,5-diaryl-1H-pyrazoles as inhibitors of arylamine N-acetyltransferase” (Bioorg Med Chem Lett, 2013).
